Data: article PMC11649784, “Re-design and evaluation of diclofenac-based carborane-substituted prodrugs and their anti-cancer potential” (Scientific Reports, 2024)

Columns and labels:
MC38 cells [1] = assay: MTT viability assay, MC38; type: cell-based, murine; conditions: 72 h, mean±SD, read-out: IC50 [μM] (n = 3) MC38 MTT
Procedure: (§1) In a preliminary test, the stability of all compounds dissolved in the cell medium (c = 100 μM, T = [drawing 47] ) for 72 h was validated by HPLC (see Supporting Information). Cell lines were incubated with the respective compounds in a concentration range of 1.56–100 μM for 72 h, and cell viability was measured using 3-(4,5-dimethylthiazol-2-yl)-2,5-diphenyltetrazolium bromide (MTT) and crystal violet (CV) assays. […] As MTT tests gave inconsistent results, possibly due to interference of the compound with mitochondrial respiration, for the further evaluation only the CV results are considered[97],[98].
(§2) The biological study was performed on a murine colon adenocarcinoma cell line (MC38), two human colorectal carcinoma cell lines (HCT116 and HT29), and a human fetal lung fibroblast cell line (MRC-5). All cell lines are commercially available and were obtained from the American Type Culture Collection (ATCC). The human cell lines were kept in HEPES-buffered RPMI-1640 medium supplemented with 10 [drawing 141] heat-inactivated FCS, 2 mM L-glutamine, 0.01 [drawing 142] sodium pyruvate, penicillin (100 units mL^−1), and, streptomycin ( [drawing 143] mL^-1). The MC38 cell line was maintained in DMEM medium additionally supplemented with 1 [drawing 144] non-essential amino acids. Cells were grown at [drawing 145] in a humidified atmosphere with 5 [drawing 146] [drawing 147] . Peritoneal exudate cells (PECs) were isolated from healthy C57BL/6 mice (males, n = 3, 3 months old, weight 22–25 g) by performing an ice-cold PBS peritoneal lavage. Mice were sacrificed by cervical dislocation. Cells were cultivated for 4 h when nonadherent population was removed by washing in PBS, and additionally cultivated overnight in HEPES-buffered RPMI-1640 medium supplemented with 5 [drawing 148] heat-inactivated FCS before treatment with experimental drugs. Animal handling and protocol for isolation of PECs were performed according to European Union rules, and the ARRIVE guidelines 2.0.
(§3) For the viability tests, MC38, HCT116, and HT29 cells were seeded in 96-well plates at a density of 2 [drawing 149] 103, 5 [drawing 150] 103, and 6 [drawing 151] 10^3 cells/well, respectively. To determine whether the drug affected the viability of healthy, non-malignant cells, MRC-5 and PECs were seeded in 96-well plates at a density of 8 [drawing 152] 103 and 2 [drawing 153] 10^5 cells/well, respectively. For the flow cytometric analyses, MC38 cells were seeded in 6-well plates at 5 [drawing 154] 10^4 cells/well. For morphological assessment of nuclei and the detection of autophagy, MC38 cells were seeded in 2-well chamber slides at 1.5 [drawing 155] 10^4 cells/well.
(§4) After 72 h, cell viability was determined using MTT and CV tests. First, the supernatant from the wells was discarded and the cells were incubated with an MTT solution (0.5 mg mL^−1). After half an hour, the purple formazan crystals formed were dissolved in DMSO. For CV staining of the cells, the cells were fixed with 4 [drawing 157] PFA for 10 min and then stained with a 0.02 [drawing 158] CV solution for 15 min, all at room temperature (RT). The cells were then washed with tap water, air-dried and the dye was dissolved in 33 [drawing 159] acetic acid. For both viability tests, the absorbance of the developed colors was measured using an automated microplate reader at 570 nm with a reference wavelength of 670 nm. The results were expressed as a percentage of the control values of the untreated cells, which were arbitrarily set at 100 [drawing 160] . IC50 values, defined as 50 [drawing 161] inhibitory concentration, were calculated using a four-parameter logistic function and presented as mean±SD. All biological experiments were performed in triplicates. To evaluate the nature of the detected autophagy, a combined treatment with compound 3 and the autophagy inhibitors chloroquine (Chlq) and 3-methyladenine (3-MA) was carried out. […] After 72 h, cell viability was determined by CV assay.

MC38 cells [2] = assay: Crystal violet (CV) viability assay, MC38; type: cell-based, murine; conditions: 72 h, mean±SD, read-out: IC50 [μM] (n = 3) MC38 CV
Procedure: as §1, §2, §3, §4

HCT116 cells [3] = assay: MTT viability assay, HCT116; type: cell-based, human; conditions: 72 h, mean±SD, read-out: IC50 [μM] (n = 3) HCT116 MTT
Procedure: as §1, §2, §3, §4

HCT116 cells [4] = assay: Crystal violet (CV) viability assay, HCT116; type: cell-based, human; conditions: 72 h, mean±SD, read-out: IC50 [μM] (n = 3) HCT116 CV
Procedure: as §1, §2, §3, §4

HT29 cells [5] = assay: MTT viability assay, HT29; type: cell-based, human; conditions: 72 h, mean±SD, read-out: IC50 [μM] (n = 3) HT29 MTT
Procedure: as §1, §2, §3, §4

HT29 cells [6] = assay: Crystal violet (CV) viability assay, HT29; type: cell-based, human; conditions: 72 h, mean±SD, read-out: IC50 [μM] (n = 3) HT29 CV
Procedure: as §1, §2, §3, §4

MC38, HCT116, and HT29 = assay: Viability assays, summary over the three cancer cell lines; type: cell-based; conditions: 72 h; for effect on cell viability: concentrations up to 100 μM
Procedure: as §1, §4

[7] = Hydrolysis stability of the lactam in solution; type: physicochemical; conditions: several pH-levels, acids, bases, temperatures and solvents
Description: To estimate the functionality as a prodrug and the stability of the oxindoles, we investigated the behavior in solution at several pH-levels, with different acids, bases, temperatures and solvents (see Supporting Information). […] The alkaline hydrolysis was successful with CsOH in a degassed 1:3 water-ethanol mixture at [drawing 29] , while acidic hydrolysis happened at [drawing 30] in 40% aqueous sulfuric acid with 2% acetic acid. Upon attempted isolation however, the lactam was re-formed within minutes as observed by [drawing 31] H and ^11B{ [drawing 32] H} NMR spectroscopy (see Supporting Information). […] The reclosing to the oxindole ring might be attributed to an increased nucleophilicity of the amino nitrogen atom stemming from its association to the carborane cluster via a cluster boron atom. This is supported by density functional theory (DFT) calculations (see Supporting Information).

human recombinant COX-2 = biological target: T1, human recombinant COX-2 (Homo sapiens, UniProt P35354); assay: COX Fluorescent Inhibitor Screening Assay, COX-2; type: biochemical; conditions: for COX inhibition, in words: in vitro COX assay, COX-1 and COX-2
T1 construct: purchased Cayman Chemical Company, Ann Arbor, MI, USA
T1 sequence (P35354 18-604): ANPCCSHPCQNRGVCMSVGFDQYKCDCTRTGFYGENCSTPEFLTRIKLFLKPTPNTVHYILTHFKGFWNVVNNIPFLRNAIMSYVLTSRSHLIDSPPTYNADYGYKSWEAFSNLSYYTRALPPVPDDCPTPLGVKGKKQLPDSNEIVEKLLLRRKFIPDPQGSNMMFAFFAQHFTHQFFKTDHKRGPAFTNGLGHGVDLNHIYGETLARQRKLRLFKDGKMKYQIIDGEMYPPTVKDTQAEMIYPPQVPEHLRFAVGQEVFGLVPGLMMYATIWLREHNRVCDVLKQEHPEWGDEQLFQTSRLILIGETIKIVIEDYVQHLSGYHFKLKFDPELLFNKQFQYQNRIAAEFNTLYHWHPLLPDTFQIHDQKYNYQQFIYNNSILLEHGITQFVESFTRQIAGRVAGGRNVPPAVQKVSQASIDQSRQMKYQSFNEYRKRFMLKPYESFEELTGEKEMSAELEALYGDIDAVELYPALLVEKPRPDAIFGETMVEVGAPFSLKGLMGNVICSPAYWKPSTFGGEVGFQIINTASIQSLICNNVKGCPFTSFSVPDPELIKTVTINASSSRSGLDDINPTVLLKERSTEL
Procedure: The COX inhibition activity against ovine COX-1 and human recombinant COX-2 was determined using the COX Fluorescent Inhibitor Screening Assay Kit (Cayman Chemical Company, Ann Arbor, MI, USA) according to the manufacturer’s instructions as reported.

Hep-G2 = conditions: cited from earlier work
[8] = tested on: MCF7, MiaPaCa-2, KB, HuTu80, L132, B16F10 and Molt4 cancer cells; design: method as in doi:10.1007/s00044-012-0309-2; conditions: cited from earlier work
[9] = cited from earlier work
[10] = in vivo ref 43, 44; cited from earlier work
[11] = buffer solutions at pH 1.2 and pH 7.4 and human serum ref 36, 43; cited from earlier work

Row | IC50 (HCT116 cells [3]) | IC50 (HCT116 cells [4]) | IC50 (HT29 cells [5]) | IC50 (HT29 cells [6]) | %Inh. @ 100 μM (n = 2) COX-2 (human recombinant COX-2) | COX inhibition, in words (human recombinant COX-2) | IC50 (HCT116 cells [3]; Homo sapiens, HCT-116) | IC50 (HCT116 cells [4]; Homo sapiens, HCT-116) | IC50 (HT29 cells [5]; Homo sapiens, HT-29) | IC50 (HT29 cells [6]; Homo sapiens, HT-29) | Compound | IC50 (MC38 cells [1]) | IC50 (MC38 cells [2]) | effect on cell viability (MC38, HCT116, and HT29) | IC50 (MC38 cells [1]; Mus musculus, MC-38) | IC50 (MC38 cells [2]; Mus musculus, MC-38) | other results
1 | > 100 µM | > 100 µM | > 100 µM | > 100 µM |  |  |  |  |  |  | 1-[2-(1,12-dicarba-closo-dodecaboranyl)]-1,3-dihydro-2H-indolin-2-one [p1] | > 100 µM | > 100 µM | no effect on cell viability |  |  | stability of the lactam towards hydrolysis [7]: extraordinarily stable towards hydrolysis
2 | > 100 µM | > 100 µM | > 100 µM | > 100 µM | 14% |  |  |  |  |  | 1-[9-(1,2-dicarba-closo-dodecaboranyl)]-1,3-dihydro-2H-indolin-2-one [o1] | > 100 µM | > 100 µM | no effect on cell viability |  |  | 
3 | > 100 µM | > 100 µM | > 100 µM | > 100 µM | 19% |  |  |  |  |  | 1-[9-(1,7-dicarba-closo-dodecaboranyl)]-1,3-dihydro-2H-indolin-2-one [m1] | > 100 µM | > 100 µM | no effect on cell viability |  |  | 
4 |  |  |  |  |  | no inhibition at all | 46.7 ± 2.4 µM | 73.5 ± 3.9 µM | 77.7 ± 5.5 µM | 74.4 ± 4.8 µM | O=C1Cc2ccccc2N1c1c(Cl)cccc1Cl [CCF, 1-(2,6-dichlorophenyl)-1,3-dihydro-2H-indolin-2-one, reference compound] |  |  |  | 32.6 ± 2.7 µM | 75.1 ± 3.8 µM | inhibition at 100 µM (human recombinant COX-2; read-out: %Inh. @ 100 μM (n = 2) COX-2): 5%; IC50 (MC38, HCT116, and HT29; CV): ~74 µM; IC50 (Hep-G2): 24.5 ± 1.11 µM; effect in initial in vitro tests on cancer cells [8]: no effect; gastrotoxicity [9]: without causing gastrotoxicity; in vivo conversion to open-chain diclofenac [10]: hydrolysis of the lactam to form the open-chain diclofenac; stability towards hydrolysis [11]: High stability towards hydrolysis
5 |  |  |  |  |  |  | > 100 µM | > 100 µM | > 100 µM | > 100 µM | O=C(O)Cc1ccccc1Nc1c(Cl)cccc1Cl [DCF, diclofenac] |  |  | no effect on cell viability | > 100 µM | > 100 µM | 
6 | > 100 µM | > 100 µM | > 100 µM | > 100 µM | 56% | moderately active COX-inhibitors |  |  |  |  | Sodium 1-[2-(7,8-dicarba-nido-undecaborate)]-1,3-dihydro-2H-indolin-2-one [compound 2] | > 100 µM | > 100 µM | no effect on cell viability |  |  | IC50 (human recombinant COX-2; absolute IC50, 0.1 to 100 μM in duplicate, 95% CI in brackets): 58.5 µM
